For 35 molecules, EC50 results are on record in US20170121344A1 (Siga Technologies, Inc., priority 2009, published 2017).

This test deals with Dengue-2 (Strain New Guinea C). Nature of the test: Viral yield assay against Dengue-2 in Vero cells. Type of test: cell-based, Dengue virus. As to conditions: Dengue virus. The method in brief:
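Vero cells were infected with dengue virus at an MOI of 0.1, treated with compound or DMSO vehicle, and kept at 37° C. Supernatant virus was harvested 48 hours post infection and titered on Vero cells, with EC50 derived from yield reduction.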

The mark [1] stands for this setting: Vero cells, MOI 0.1, harvested 48 hours post infection, read-out: Activity (EC50 class) against Dengue-2 Virus in Vero cells.
Setting [2] is: DENV2, viral yield assay, Vero cells, MOI 0.1, 48 hours post infection, read-out: Activity (EC50 in μM) DENV-2.
Setting [3] is: Vero, 48 h, read-out: Activity (EC50 class) against Dengue-2 Virus in Vero cells.

SMILES strings stand for the structures. Where two headings read alike, the source gives them in different places. Bounds are passed on as bounds.

The EC50 is the concentration that produces a half-maximal response. Consider `Cc1cc(C)c(NC(=O)c2sc3nc4c(cc3c2N)C(=O)CCC4)c(C)c1` [Compound 94, 3-Amino-5-oxo-5,6,7,8-tetrahydro-thieno[2,3-b]quinoline-2-carboxylic acid (2,4,6-trimethyl-phenyl)-amide], for which, under setting [1], the EC50 fell in the range of 5 to 25 µM.
The same measure, in the same setting: the same measure for `CN1CCc2nc3sc(C(=O)Nc4ccccc4Cl)c(N)c3cc2C1` [Compound 19, 3-Amino-6-methyl-5,6,7,8-tetrahydro-thieno[2,3-b][1,6]naphthyridine-2-carboxylic acid (2-chloro-phenyl)-amide]: below 5 µM.
On to `O=C(Nc1ccccc1)c1sc2ncccc2c1OCc1ccc(Cl)c(Cl)c1` [Compound 379, 3-[(3,4-dichlorophenyl)methoxy]-N-phenyl-thieno[2,3-b]pyridine-2-carboxamide], for which the EC50 under setting [2] is below 5 µM.
On to `CC(=O)c1ccc(NC(=O)c2sc3nc4c(c(-c5ccccc5)c3c2N)CN(C)CC4)cc1` [Compound 51, 3-Amino-6-methyl-4-phenyl-5,6,7,8-tetrahydro-thieno[2,3-b][1,6]naphthyridine-2-carboxylic acid (4-acetyl-phenyl)-amide], for which the EC50 under setting [1] is below 5 µM.
As to `CN1CCc2nc3sc(C(=O)NC(C)(C)C)c(N)c3cc2C1` [Compound 107, 3-Amino-6-methyl-5,6,7,8-tetrahydro-thieno[2,3-b][1,6]naphthyridine-2-carboxylic acid tart-butylamide], under setting [3], the EC50 lay within 5 to 25 µM.
As for `COc1cccc(-c2ccc3c(N)c(C(=O)Nc4ccc(C)c(F)c4)sc3n2)c1` [Compound 523, 3-amino-N-(3-fluoro-4-methyl-phenyl)-6-(3-methoxyphenyl)thieno[2,3-b] pyridine-2-carboxamide], the EC50 under setting [2] is below 5 µM.
Same read-out and setting: to `Cc1cc(C)c2c(C)c(C(=O)N3CCc4ccccc4C3)sc2n1` [Compound 408, 3,4-dihydro-1H-isoquinolin-2-yl-(3,4,6-trimethylthieno[2,3-b]pyridin-2-yl) methanone] belongs above 25 µM; to `CC(C)(C)NC(=O)c1sc2nc3c(cc2c1N)CCCCC3` [Compound 283, 3-amino-N-(tert-butyl)-6,7,8,9-tetrahydro-5H-cyclohepta[b]thieno [3,2-c]pyridine-2-carboxamide], below 5 µM.
With `Nc1c(C(=O)Nc2ccccc2C(F)(F)F)sc2nc3c(cc12)CCCC3` [Compound 254, 3-Amino-5,6,7,8-tetrahydro-thieno[2,3-b]quinoline-2-carboxylic acid (2-trifluoromethyl-phenyl)-amide], the EC50 under setting [1] is above 25 µM.
As to `Cc1c(C(=O)NC(C)(C)C)sc2nc(-c3cccs3)cc(C(F)(F)F)c12` [Compound 388, N-tert-butyl-3-methyl-6-(2-thienyl)-4-(trifluoromethyl)thieno[2,3-b]pyridine-2-carboxamide], the EC50 under setting [2] was below 5 µM.
On the same count and under the same terms, the same measure for `CCOc1ccccc1NC(=O)c1sc2nc(-c3ccc4c(c3)OCO4)ccc2c1N` [Compound 517, 3-amino-6-(1,3-benzodioxol-5-yl)-N-(2-ethoxyphenyl)thieno[2,3-b]pyridine-2-carboxamide]: below 5 µM.
For `Nc1c(C(=O)N2CCCCC2)sc2nc(-c3cccs3)cc(C(F)(F)F)c12` [Compound 189, (3-Amino-6-thiophen-2-yl-4-trifluoromethyl-thieno[2,3-b]pyridin-2-yl)-piperidin-1-yl-methanone], the EC50 under setting [1] is above 25 µM.
Still for that read-out and setting: the same measure for `CCOC(=O)c1c(NC(=O)c2sc3nc(N)c(C#N)cc3c2N)sc2c1CCCC2` [Compound 148, 2-[(3,6-Diamino-5-cyano-thieno[2,3-b]pyridine-2-carbonyl)-amino]-4,5,6,7-tetrahydro-benzo[b]thiophene-3-carboxylic acid ethyl ester]: above 25 µM; for `CC1(C)Cc2c(c(N3CCOCC3)nc3sc4c(=O)n(-c5ccc(Cl)c(Cl)c5)cnc4c23)CO1` [Compound 245, 9-(3,4-Dichloro-phenyl)-2,2-dimethyl-5-morpholin-4-yl-1,4-dihydro-2H,9H-3-oxa-7-thia-6,9,11-triaza-benzo[c]fluoren-8-one]: above 25 µM.
As for `Cc1ccccc1NC(=O)c1sc2nc3c(c(-c4cccs4)c2c1N)CN(C)CC3` [Compound 27, 3-Amino-6-methyl-4-thiophen-2-yl-5,6,7,8-tetrahydro-thieno[2,3-b][1,6]naphthyridine-2-carboxylic acid o-tolylamide], the EC50 under setting [1] was below 5 µM.
On to `COc1cccc(-c2ccc3c(N)c(C(=O)Nc4cc(OC)ccc4Cl)sc3n2)c1` [Compound 548, 3-amino-N-(2-chloro-5-methoxy-phenyl)-6-(3-methoxyphenyl)thieno[2,3-b] pyridine-2-carboxamide], for which, under setting [2], the EC50 is below 5 µM.
The same measure, in the same setting: to `Cc1c(Cl)cccc1NC(=O)c1sc2nc(-c3ccc(F)cc3)ccc2c1N` [Compound 604, 3-amino-N-(3-chloro-2-methyl-phenyl)-6-(4-fluorophenyl)thieno[2,3-b]pyridine-2-carboxamide] belongs below 5 µM.
`COc1ccc(NC(=O)c2sc3nc4c(c(-c5ccccc5)c3c2N)CN(C)CC4)cc1` [Compound 50, 3-Amino-6-methyl-4-phenyl-5,6,7,8-tetrahydro-thieno[2,3-b][1,6]naphthyridine-2-carboxylic acid (4-methoxy-phenyl)-amide]: the EC50 under setting [1] was below 5 µM.
Turning to `CC(=O)c1cnc2sc(C(=O)Nc3cccc(F)c3)c(C)c2c1` [Compound 391, 5-acetyl-N-(3-fluorophenyl)-3-methyl-thieno[2,3-b]pyridine-2-carboxamide], the EC50 under setting [2] is below 5 µM.
Turning to `COCc1cc(C)nc2sc(C(=O)Nc3cc(Br)cc4cccnc34)c(N)c12` [Compound 146, 3-Amino-4-methoxymethyl-6-methyl-thieno[2,3-b]pyridine-2-carboxylic acid (6-bromo-quinolin-8-yl)-amide], the EC50 under setting [3] was above 25 µM.
`CCOc1cccc(NC(=O)c2sc3nc(-c4cccc(OC)c4)ccc3c2N)c1` [Compound 552, 3-amino-N-(3-ethoxyphenyl)-6-(3-methoxyphenyl)thieno[2,3-b]pyridine-2-carboxamide]: the EC50 under setting [2] was below 5 µM.
In the case of `COc1ccc(-c2ccc3c(N)c(C(=O)Nc4ccccc4C)sc3n2)cc1OC` [Compound 581, 3-amino-6-(3,4-dimethoxyphenyl)-N-(o-tolyl)thieno[2,3-b]pyridine-2-carboxamide], the EC50 under setting [2] is below 5 µM.
For `CCN1CCc2nc3sc(C(=O)Nc4ccccc4OC(F)(F)F)c(N)c3cc2C1` [Compound 40, 3-Amino-6-ethyl-5,6,7,8-tetrahydro-thieno[2,3-b][1,6]naphthyridine-2-carboxylic acid (2-trifluoromethoxy-phenyl)-amide], the EC50 under setting [1] was below 5 µM.
In the case of `CN1CCc2nc3sc(C(=O)Nc4ccc(F)c(F)c4)c(N)c3cc2C1` [Compound 16, 3-Amino-6-methyl-5,6,7,8-tetrahydro-thieno[2,3-b][1,6]naphthyridine-2-carboxylic acid (3,4-difluoro-phenyl)-amide], the EC50 under setting [1] was below 5 µM.
`COc1cccc(-c2ccc3c(N)c(C(=O)Nc4ccc(Cl)cc4F)sc3n2)c1` [Compound 519, 3-amino-N-(4-chloro-2-fluoro-phenyl)-6-(3-methoxyphenyl)thieno[2,3-b]pyridine-2-carboxamide]: under setting [2], the EC50 was below 5 µM.
The same measure, in the same setting: to `COc1ccc(C(F)(F)F)cc1NC(=O)c1sc2nc(-c3ccc(OC)c(OC)c3)ccc2c1N` [Compound 531, 3-amino-6-(3,4-dimethoxyphenyl)-N-[2-methoxy-5-(trifluoromethyl)phenyl]thieno [2,3-b]pyridine-2-carboxamide] belongs below 5 µM.
With `Cc1nc2sc(C(=O)Nc3ccc(Br)cc3)c(N)c2c(C)c1C` [Compound 157, 3-Amino-4,5,6-trimethyl-thieno[2,3-b]pyridine-2-carboxylic acid (4-bromo-phenyl)-amide], under setting [3], the EC50 was above 25 µM.
For `CC1(C)CC(=O)c2cc3c(N)c(C(=O)NCc4ccco4)sc3nc2C1` [Compound 95, 3-Amino-7,7-dimethyl-5-oxo-5,6,7,8-tetrahydro-thieno[2,3-b]quinoline-2-carboxylic acid (furan-2-ylmethyl)-amide], under setting [3], the EC50 was 5 to 25 µM.
`Cc1cc(C)c2c(n1)sc1c(=O)[nH]c(C)nc12` [Compound 153, 2,7,9-Trimethyl-3H-pyrido[3′,2′:4,5]thieno[3,2-d]pyrimidin-4-one]: under setting [1], the EC50 is above 25 µM.
Still for that read-out and setting: the same measure for `CC(=O)c1ccc(NC(=O)c2sc3nc4c(cc3c2N)CN(C)CC4)cc1` [Compound 43, 3-Amino-6-methyl-5,6,7,8-tetrahydro-thieno[2,3-b][1,6]naphthyridine-2-carboxylic acid (4-acetyl-phenyl)-amide]: below 5 µM.
With `NC(=O)c1sc2nc3c(c(-c4ccco4)c2c1N)CCC3` [Compound 99, 3-Amino-4-furan-2-yl-6,7-dihydro-5H-cyclopenta[b]thieno[3,2-e]pyridine-2-carboxylic acid amide], the EC50 under setting [3] fell in the range of 5 to 25 µM.
On to `COc1cccc(-c2ccc3c(N)c(C(=O)Nc4ccc(F)cc4C)sc3n2)c1` [Compound 551, 3-amino-N-(4-fluoro-2-methyl-phenyl)-6-(3-methoxyphenyl)thieno[2,3-b] pyridine-2-carboxamide], for which the EC50 under setting [2] is below 5 µM.
Regarding `Nc1c(C(=O)Nc2ccc3ccccc3c2)sc2nc3c(cc12)CCCC3` [Compound 87, 3-Amino-5,6,7,8-tetrahydro-thieno[2,3-b]quinoline-2-carboxylic acid naphthalen-2-ylamide], the EC50 under setting [1] fell in the range of 5 to 25 µM.
Take `COc1ccc(-c2cc(-c3cccs3)nc3sc(C(N)=O)c(N)c23)cc1` [Compound 238, 3-Amino-4-(4-methoxy-phenyl)-6-thiophen-2-yl-thieno[2,3-b]pyridine-2-carboxylic acid amide]: the EC50 under setting [1] was above 25 µM.
Still for that read-out and setting: to `CCN(CC)C(=O)c1sc2nc(C)cc(C)c2c1N` [Compound 167, 3-Amino-4,6-dimethyl-thieno[2,3-b]pyridine-2-carboxylic acid diethylamide] belongs above 25 µM.
